Data on eleven molecules can be found in PubChem BioAssay AID256 (DTP/NCI, 2004).

This assay has as its system CD2F1 mice, L1210 leukemia ip, survival T/C. Put plainly: NCI In Vivo Anticancer Drug Screen. Data for tumor model L1210 Leukemia (intraperitoneal) in CD2F1 (CDF1) mice. The following applies: higher = longer survival. The method in brief:
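Ratio T/C, where T is the treated-group value and C the vehicle-dosed control value, from mice implanted with a transplantable tumor.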

Where “and” joins values, the source holds several entries; their conditions need not be identical. Identical values can stand only once. Inconclusive results and toxic doses are left out.

As for `O=C(CC1CCCCN1)CC1CCCCN1` (stereo not drawn), the T/C is 100 % of control (endpoint: median survival time, dose: 25.0 mg/kg/injection, schedule: Q04DX003 (ip), vehicle: saline); 100 % of control (endpoint: median survival time, dose: 50.0 mg/kg/injection, schedule: Q04DX003 (ip), vehicle: saline); 90 % of control (endpoint: median survival time, dose: 100.0 mg/kg/injection, schedule: Q04DX003 (ip), vehicle: saline); 90 % of control (endpoint: median survival time, dose: 200.0 mg/kg/injection, schedule: Q04DX003 (ip), vehicle: saline).
Take `BrCc1c2ccccc2c(CBr)c2c1ccc1ccccc12`: the T/C reads like this: (endpoint: mean survival time, dose: 25.0 mg/kg/injection, schedule: Q04DX002 (ip), vehicle: carboxymethylcellulose (CMC)) 105 % of control; (endpoint: mean survival time, dose: 50.0 mg/kg/injection, schedule: Q04DX002 (ip), vehicle: carboxymethylcellulose (CMC)) 117 % of control; (endpoint: mean survival time, dose: 100.0 mg/kg/injection, schedule: Q04DX002 (ip), vehicle: Klucel (hydroxypropylcellulose) (HPC)) 97 % of control; (endpoint: mean survival time, dose: 100.0 mg/kg/injection, schedule: Q04DX002 (ip), vehicle: carboxymethylcellulose (CMC)) 113 % of control; (endpoint: mean survival time, dose: 200.0 mg/kg/injection, schedule: Q04DX002 (ip), vehicle: Klucel (hydroxypropylcellulose) (HPC)) 117 % of control.
On to `CO[C@@]12[C@@H]3N[C@@H]3CN1C1=C(C(=O)C(NCc3ccco3)=C(C)C1=O)[C@@H]2COC(N)=O`, for which the T/C (endpoint: mean survival time, dose: 1.5 mg/kg/injection, schedule: Q01DX001 (ip), vehicle: distilled water + Tween-80) was 113 % of control; the T/C (endpoint: mean survival time, dose: 3.0 mg/kg/injection, schedule: Q01DX001 (ip), vehicle: distilled water + Tween-80) is 120 % of control; the T/C (endpoint: mean survival time, dose: 24.0 mg/kg/injection, schedule: Q01DX001 (ip), vehicle: distilled water + Tween-80) is 156 % of control; the T/C (endpoint: mean survival time, dose: 36.0 mg/kg/injection, schedule: Q01DX001 (ip), vehicle: distilled water + Tween-80) is 108 % of control.
As to `CC(=O)OCC1OC(c2cccc3c2c2ccccc2n3S(=O)(=O)c2ccccc2)C(O)C1O` (stereo not drawn), the T/C is 110 % of control (endpoint: median survival time, dose: 12.5 mg/kg/injection, schedule: Q01DX005 (ip), vehicle: saline with Tween-80); 107 % of control (endpoint: median survival time, dose: 25.0 mg/kg/injection, schedule: Q01DX005 (ip), vehicle: saline with Tween-80); 96 % of control (endpoint: median survival time, dose: 50.0 mg/kg/injection, schedule: Q01DX005 (ip), vehicle: saline with Tween-80); 98 % of control (endpoint: median survival time, dose: 100.0 mg/kg/injection, schedule: Q01DX005 (ip), vehicle: saline with Tween-80); 98 % of control (endpoint: median survival time, dose: 200.0 mg/kg/injection, schedule: Q01DX005 (ip), vehicle: saline with Tween-80).
Take `CCSC/C(=N\Nc1ccc([N+](=O)[O-])cc1[N+](=O)[O-])c1ccccc1`: the T/C (endpoint: mean survival time, dose: 100.0 mg/kg/injection, schedule: Q04DX003 (ip), vehicle: saline with Tween-80) was 109 % of control; the T/C (endpoint: mean survival time, dose: 200.0 mg/kg/injection, schedule: Q04DX003 (ip), vehicle: saline with Tween-80) is 109 % of control; the T/C (endpoint: mean survival time, dose: 400.0 mg/kg/injection, schedule: Q04DX003 (ip), vehicle: saline with Tween-80) was 102 % of control.
On to `CN(C)CCC[n+]1cc2c3ccccc3c(N)cc2c2ccccc21`, for which the T/C reads like this: (endpoint: mean survival time, dose: 3.13 mg/kg/injection, schedule: Q04DX003 (ip), vehicle: water) 103 % of control; (endpoint: mean survival time, dose: 6.25 mg/kg/injection, schedule: Q04DX003 (ip), vehicle: water) 106 % of control; (endpoint: mean survival time, dose: 12.5 mg/kg/injection, schedule: Q04DX003 (ip), vehicle: water) 103 % of control; (endpoint: mean survival time, dose: 25.0 mg/kg/injection, schedule: Q04DX003 (ip), vehicle: water) 109 % of control; (endpoint: mean survival time, dose: 50.0 mg/kg/injection, schedule: Q04DX003 (ip), vehicle: water) 109 % of control.
Take `Nc1ncnc2nc[nH]c12`: the T/C runs as follows: (endpoint: median survival time, dose: 70.0 mg/kg/injection, schedule: Q01DX009 (ip), vehicle: acid diluted with saline) 98 % of control; (endpoint: median survival time, dose: 70.0 mg/kg/injection, schedule: Q01DX009 (ip), vehicle: other) 109 % of control; (endpoint: median survival time, dose: 80.0 mg/kg/injection, schedule: Q01DX009 (ip), vehicle: acid diluted with saline) 103 % of control; (endpoint: median survival time, dose: 80.0 mg/kg/injection, schedule: Q01DX009 (ip), vehicle: other) 112 % of control; (endpoint: median survival time, dose: 90.0 mg/kg/injection, schedule: Q01DX009 (ip), vehicle: acid diluted with saline) 101 % of control; (endpoint: median survival time, dose: 90.0 mg/kg/injection, schedule: Q01DX009 (ip), vehicle: other) 106 % of control.
As to `C1OC1CN1CCN(CC2CO2)CC1` (stereo not drawn), the T/C is, setting by setting: (endpoint: mean survival time, dose: 2.0 mg/kg/injection, schedule: Q03HX008 (ip), vehicle: saline) 105 % of control; (endpoint: mean survival time, dose: 2.0 mg/kg/injection, schedule: Q03HX016 (ip), vehicle: saline) 98 % of control; (endpoint: mean survival time, dose: 2.0 mg/kg/injection, schedule: Q03HX024 (ip), vehicle: saline) 108 % of control; (endpoint: mean survival time, dose: 4.0 mg/kg/injection, schedule: Q03HX008 (ip), vehicle: saline) 108 % of control; (endpoint: mean survival time, dose: 4.0 mg/kg/injection, schedule: Q03HX016 (ip), vehicle: saline) 100 % of control; (endpoint: mean survival time, dose: 4.0 mg/kg/injection, schedule: Q03HX024 (ip), vehicle: saline) 121 % of control. Further, the T/C is 121 % of control (endpoint: mean survival time, dose: 8.0 mg/kg/injection, schedule: Q01DX009 (ip), vehicle: saline); 108 % of control (endpoint: mean survival time, dose: 8.0 mg/kg/injection, schedule: Q01DX009 (sc), vehicle: saline); 113 % of control (endpoint: mean survival time, dose: 16.0 mg/kg/injection, schedule: Q01DX001 (ip), vehicle: saline); 105 % of control (endpoint: mean survival time, dose: 16.0 mg/kg/injection, schedule: Q01DX001 (sc), vehicle: saline); 120 % of control (endpoint: mean survival time, dose: 16.0 mg/kg/injection, schedule: Q04DX003 (ip), vehicle: saline); 103 % of control (endpoint: mean survival time, dose: 16.0 mg/kg/injection, schedule: Q08DX002 (ip), vehicle: saline). The T/C (endpoint: mean survival time, dose: 32.0 mg/kg/injection, schedule: Q01DX001 (sc), vehicle: saline) is 108 % of control; the T/C (endpoint: mean survival time, dose: 32.0 mg/kg/injection, schedule: Q01DX009 (ip), vehicle: saline) is 194 % of control; the T/C (endpoint: mean survival time, dose: 32.0 mg/kg/injection, schedule: Q08DX002 (ip), vehicle: saline) was 120 % of control; the T/C (endpoint: mean survival time, dose: 64.0 mg/kg/injection, schedule: Q01DX001 (ip), vehicle: saline) is 152 % of control; the T/C (endpoint: mean survival time, dose: 64.0 mg/kg/injection, schedule: Q01DX001 (sc), vehicle: saline) is 122 % of control; the T/C (endpoint: mean survival time, dose: 64.0 mg/kg/injection, schedule: Q01DX009 (ip), vehicle: saline) was 92 % of control. Besides, the T/C (endpoint: mean survival time, dose: 64.0 mg/kg/injection, schedule: Q01DX009 (sc), vehicle: saline) is 88 % of control; the T/C (endpoint: mean survival time, dose: 64.0 mg/kg/injection, schedule: Q04DX003 (ip), vehicle: saline) is 175 % of control; the T/C (endpoint: mean survival time, dose: 64.0 mg/kg/injection, schedule: Q08DX002 (ip), vehicle: saline) is 156 % of control; the T/C (endpoint: mean survival time, dose: 128.0 mg/kg/injection, schedule: Q01DX001 (ip), vehicle: saline) is 201 % of control; the T/C (endpoint: mean survival time, dose: 128.0 mg/kg/injection, schedule: Q04DX003 (ip), vehicle: saline) was 88 % of control; the T/C (endpoint: mean survival time, dose: 128.0 mg/kg/injection, schedule: Q08DX002 (ip), vehicle: saline) is 190 % of control.
`COc1cc(OC)c(NC(=O)Oc2ccc(NC(C)=O)cc2)cc1Cl`: the T/C by setting is: (endpoint: mean survival time, dose: 50.0 mg/kg/injection, schedule: Q01DX009 (ip), vehicle: saline with Tween-80) 88 % of control; (endpoint: mean survival time, dose: 100.0 mg/kg/injection, schedule: Q01DX009 (ip), vehicle: saline with Tween-80) 96 % of control.
As for `O=c1ccn(C2OC(CO)C(O)C2O)c(/C=C(\O)c2ccccc2)n1` (stereo not drawn), the T/C by setting is: (endpoint: mean survival time, dose: 12.5 mg/kg/injection, schedule: Q01DX005 (ip), vehicle: distilled water + Tween-80) 105 % of control; (endpoint: mean survival time, dose: 25.0 mg/kg/injection, schedule: Q01DX005 (ip), vehicle: distilled water + Tween-80) 97 % of control; (endpoint: mean survival time, dose: 50.0 mg/kg/injection, schedule: Q01DX005 (ip), vehicle: distilled water + Tween-80) 97 % of control; (endpoint: mean survival time, dose: 100.0 mg/kg/injection, schedule: Q01DX005 (ip), vehicle: distilled water + Tween-80) 102 % of control; (endpoint: mean survival time, dose: 200.0 mg/kg/injection, schedule: Q01DX005 (ip), vehicle: distilled water + Tween-80) 102 % of control.
With `COC(=O)C1OC(Sc2ncnc3nc[nH]c23)C(O)C(O)C1O` (stereo not drawn), the T/C was 98 % of control (endpoint: median survival time, dose: 25.0 mg/kg/injection, schedule: Q01DX005 (ip), vehicle: water); 109 % of control (endpoint: median survival time, dose: 50.0 mg/kg/injection, schedule: Q01DX005 (ip), vehicle: water); 109 % of control (endpoint: median survival time, dose: 100.0 mg/kg/injection, schedule: Q01DX005 (ip), vehicle: water); 113 % of control and 118 % of control (endpoint: median survival time, dose: 200.0 mg/kg/injection, schedule: Q01DX005 (ip), vehicle: water); 119 % of control (endpoint: median survival time, dose: 400.0 mg/kg/injection, schedule: Q01DX005 (ip), vehicle: water).
